According to ChEMBL document CHEMBL1781926, “Synthesis of 1-naphtylpiperazine derivatives as serotoninergic ligands and their evaluation as antiproliferative agents” (Eur J Med Chem, 2011):
Calls of active or inactive are those of the source. The rule behind the calls is not given here.

Key:
[1] = test system: PC-3; assay: Antiproliferative activity against human PC3 cells assessed as growth inhibition after 96 hrs by SRB assay; type: functional, cell-based
[2] = test system: PC-3; assay: Induction of apoptosis in human PC3 cells at 15 uM after 48 hrs using propidium iodide staining by flow cytometry (reference value: 0.84 %); type: functional
[3] = test system: PC-3; assay: Cell cycle arrest in human PC3 cells assessed as accumulation at G2 phase at 15 uM after 48 hrs using propidium iodide staining by flow cytometry (reference value: 13.36 %); type: functional
[4] = test system: PC-3; assay: Cell cycle arrest in human PC3 cells assessed as accumulation at G1 phase at 15 uM after 72 hrs using propidium iodide staining by flow cytometry (reference value: 42.19 %); type: functional
[5] = test system: PC-3; assay: Cell cycle arrest in human PC3 cells assessed as accumulation at S phase at 15 uM after 72 hrs using propidium iodide staining by flow cytometry (reference value: 37.73 %); type: functional
[6] = test system: PC-3; assay: Induction of apoptosis in human PC3 cells at 15 uM after 72 hrs using propidium iodide staining by flow cytometry (reference value: 1.79 %); type: functional
[7] = test system: PC-3; assay: Cell cycle arrest in human PC3 cells assessed as accumulation at G1 phase at 15 uM after 24 hrs using propidium iodide staining by flow cytometry (reference value: 46.97 %); type: functional
[8] = test system: PC-3; assay: Cell cycle arrest in human PC3 cells assessed as accumulation at S phase at 15 uM after 48 hrs using propidium iodide staining by flow cytometry (reference value: 38.16 %); type: functional
[9] = test system: PC-3; assay: Cell cycle arrest in human PC3 cells assessed as accumulation at S phase at 15 uM after 24 hrs using propidium iodide staining by flow cytometry (reference value: 34.84 %); type: functional
[10] = test system: PC-3; assay: Cell cycle arrest in human PC3 cells assessed as accumulation at G1 phase at 15 uM after 48 hrs using propidium iodide staining by flow cytometry (reference value: 54.14 %); type: functional
[11] = test system: PC-3; assay: Cell cycle arrest in human PC3 cells assessed as accumulation at G2 phase at 15 uM after 24 hrs using propidium iodide staining by flow cytometry (reference value: 18.19 %); type: functional
[12] = test system: PC-3; assay: Induction of apoptosis in human PC3 cells at 15 uM after 24 hrs using propidium iodide staining by flow cytometry (reference value: 1.27 %); type: functional
[13] = test system: PC-3; assay: Cell cycle arrest in human PC3 cells assessed as accumulation at G2 phase at 15 uM after 72 hrs using propidium iodide staining by flow cytometry (reference value: 20.18 %); type: functional
[14] = biological target: D(1A) dopamine receptor (Rattus norvegicus, UniProt P18901); assay: Displacement of [3H]SCH 23390 from dopamine D1 receptor in rat corpora striatum homogenates after 15 mins by liquid scintillation counting
[15] = biological target: T1, 5-hydroxytryptamine receptor 1A (Rattus norvegicus, UniProt P19327); assay: Displacement of [3H]8-OH-DPAT from 5HT1A receptor in Sprague-Dawley rat brain cortex homogenates after 30 mins by liquid scintillation counting; type: tissue-based
T1 sequence (P19327 whole entry): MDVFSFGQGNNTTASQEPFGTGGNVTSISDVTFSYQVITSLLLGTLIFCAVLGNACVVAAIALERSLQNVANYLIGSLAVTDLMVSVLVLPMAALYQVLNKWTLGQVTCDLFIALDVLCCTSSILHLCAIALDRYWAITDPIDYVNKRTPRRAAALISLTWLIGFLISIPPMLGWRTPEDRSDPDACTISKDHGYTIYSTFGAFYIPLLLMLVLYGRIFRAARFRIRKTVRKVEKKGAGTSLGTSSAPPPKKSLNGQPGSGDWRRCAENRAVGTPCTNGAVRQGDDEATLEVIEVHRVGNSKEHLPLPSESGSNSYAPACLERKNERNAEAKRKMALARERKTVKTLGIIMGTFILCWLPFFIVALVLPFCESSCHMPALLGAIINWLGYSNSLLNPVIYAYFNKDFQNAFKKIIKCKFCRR

[16] = biological target: 5-hydroxytryptamine receptor 2A (Rattus norvegicus, UniProt P14842); assay: Displacement of [3H]Ketanserin from 5HT2A receptor in Sprague-Dawley rat frontal cortical homogenates after 15 mins
[17] = biological target: D(2) dopamine receptor (Rattus norvegicus, UniProt P61169); assay: Displacement of [3H]spiperone from dopamine D2 receptor in rat corpora striatum homogenates after 15 mins by liquid scintillation counting
[18] = biological target: T2, Adrenergic receptor alpha-2 (Rattus norvegicus, UniProt P22086+P19328+P22909); assay: Displacement [3H]yohimbine from alpha 2 adrenergic receptor in rat brain cortex homogenates after 30 mins by liquid scintillation counting; type: tissue-based
T2 sequence (P22086 whole entry): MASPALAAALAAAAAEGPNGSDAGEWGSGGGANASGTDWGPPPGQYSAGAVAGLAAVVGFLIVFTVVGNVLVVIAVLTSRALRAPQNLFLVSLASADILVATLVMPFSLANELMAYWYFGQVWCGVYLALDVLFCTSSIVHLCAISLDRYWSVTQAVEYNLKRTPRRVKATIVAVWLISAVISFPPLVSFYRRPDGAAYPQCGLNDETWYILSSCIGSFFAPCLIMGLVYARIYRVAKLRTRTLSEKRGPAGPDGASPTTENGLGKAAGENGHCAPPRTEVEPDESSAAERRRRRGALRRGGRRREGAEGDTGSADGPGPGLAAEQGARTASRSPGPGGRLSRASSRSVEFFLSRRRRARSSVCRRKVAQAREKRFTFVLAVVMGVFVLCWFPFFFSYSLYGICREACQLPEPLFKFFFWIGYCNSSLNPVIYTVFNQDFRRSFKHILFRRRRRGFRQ
T2 sequence (P19328 whole entry): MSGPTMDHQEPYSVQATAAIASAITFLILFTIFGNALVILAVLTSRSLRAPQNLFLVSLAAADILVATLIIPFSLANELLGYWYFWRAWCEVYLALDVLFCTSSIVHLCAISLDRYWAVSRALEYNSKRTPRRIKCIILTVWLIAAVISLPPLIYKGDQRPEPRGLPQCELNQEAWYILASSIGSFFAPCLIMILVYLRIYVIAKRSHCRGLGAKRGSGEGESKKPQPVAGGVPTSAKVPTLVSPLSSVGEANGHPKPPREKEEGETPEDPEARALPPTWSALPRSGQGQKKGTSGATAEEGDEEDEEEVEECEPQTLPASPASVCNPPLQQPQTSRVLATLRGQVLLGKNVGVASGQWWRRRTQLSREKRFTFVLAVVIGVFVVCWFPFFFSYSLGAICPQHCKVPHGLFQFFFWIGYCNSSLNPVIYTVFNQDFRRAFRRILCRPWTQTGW
T2 sequence (P22909 whole entry): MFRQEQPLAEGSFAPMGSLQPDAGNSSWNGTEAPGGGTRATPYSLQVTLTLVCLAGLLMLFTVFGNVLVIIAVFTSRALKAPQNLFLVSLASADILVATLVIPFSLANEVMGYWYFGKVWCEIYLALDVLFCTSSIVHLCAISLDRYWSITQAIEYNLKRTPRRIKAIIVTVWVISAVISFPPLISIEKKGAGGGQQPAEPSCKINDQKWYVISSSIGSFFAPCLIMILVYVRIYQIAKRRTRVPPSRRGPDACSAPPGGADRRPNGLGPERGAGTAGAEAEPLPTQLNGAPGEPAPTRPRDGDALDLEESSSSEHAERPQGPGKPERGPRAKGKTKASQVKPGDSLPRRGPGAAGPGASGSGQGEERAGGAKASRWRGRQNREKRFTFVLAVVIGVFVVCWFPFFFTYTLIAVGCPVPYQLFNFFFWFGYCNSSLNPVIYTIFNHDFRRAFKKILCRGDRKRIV

[19] = biological target: T3, 5-hydroxytryptamine receptor 2C (Rattus norvegicus, UniProt P08909); assay: Displacement of [3H]mesulergine from 5HT2C receptor in Sprague-Dawley rat frontal cortical homogenates after 15 mins
T3 sequence (P08909 whole entry): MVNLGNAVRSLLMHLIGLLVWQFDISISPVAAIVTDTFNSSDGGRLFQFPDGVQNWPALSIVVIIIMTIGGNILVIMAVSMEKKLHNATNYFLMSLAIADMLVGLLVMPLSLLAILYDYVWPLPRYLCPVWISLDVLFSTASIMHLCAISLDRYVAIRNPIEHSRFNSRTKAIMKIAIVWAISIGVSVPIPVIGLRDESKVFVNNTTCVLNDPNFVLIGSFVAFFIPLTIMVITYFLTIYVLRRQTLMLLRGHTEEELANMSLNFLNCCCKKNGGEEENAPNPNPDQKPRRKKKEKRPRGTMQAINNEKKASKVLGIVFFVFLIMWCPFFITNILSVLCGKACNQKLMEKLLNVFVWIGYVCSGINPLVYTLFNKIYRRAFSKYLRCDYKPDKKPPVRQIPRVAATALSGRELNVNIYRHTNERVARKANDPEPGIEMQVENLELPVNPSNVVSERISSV

[20] = biological target: T4, Adrenergic receptor alpha-1 (Rattus norvegicus, UniProt P15823+P23944+P43140); assay: Displacement [3H]prazosin from alpha1 adrenergic receptor in rat brain cortex homogenates after 30 mins by liquid scintillation counting; type: tissue-based
T4 sequence (P15823 whole entry): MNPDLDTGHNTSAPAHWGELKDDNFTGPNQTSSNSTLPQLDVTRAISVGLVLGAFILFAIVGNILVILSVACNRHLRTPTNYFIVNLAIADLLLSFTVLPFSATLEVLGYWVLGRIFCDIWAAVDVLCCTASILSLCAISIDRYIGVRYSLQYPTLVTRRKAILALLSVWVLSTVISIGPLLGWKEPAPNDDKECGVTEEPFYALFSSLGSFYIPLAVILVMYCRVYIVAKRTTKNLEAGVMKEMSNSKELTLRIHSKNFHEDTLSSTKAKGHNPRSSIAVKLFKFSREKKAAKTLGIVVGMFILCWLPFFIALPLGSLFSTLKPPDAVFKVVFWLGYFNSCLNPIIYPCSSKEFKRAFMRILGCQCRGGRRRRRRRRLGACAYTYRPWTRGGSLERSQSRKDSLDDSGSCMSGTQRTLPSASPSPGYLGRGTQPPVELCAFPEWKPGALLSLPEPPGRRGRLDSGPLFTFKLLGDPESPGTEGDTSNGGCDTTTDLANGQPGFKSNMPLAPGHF
T4 sequence (P23944 whole entry): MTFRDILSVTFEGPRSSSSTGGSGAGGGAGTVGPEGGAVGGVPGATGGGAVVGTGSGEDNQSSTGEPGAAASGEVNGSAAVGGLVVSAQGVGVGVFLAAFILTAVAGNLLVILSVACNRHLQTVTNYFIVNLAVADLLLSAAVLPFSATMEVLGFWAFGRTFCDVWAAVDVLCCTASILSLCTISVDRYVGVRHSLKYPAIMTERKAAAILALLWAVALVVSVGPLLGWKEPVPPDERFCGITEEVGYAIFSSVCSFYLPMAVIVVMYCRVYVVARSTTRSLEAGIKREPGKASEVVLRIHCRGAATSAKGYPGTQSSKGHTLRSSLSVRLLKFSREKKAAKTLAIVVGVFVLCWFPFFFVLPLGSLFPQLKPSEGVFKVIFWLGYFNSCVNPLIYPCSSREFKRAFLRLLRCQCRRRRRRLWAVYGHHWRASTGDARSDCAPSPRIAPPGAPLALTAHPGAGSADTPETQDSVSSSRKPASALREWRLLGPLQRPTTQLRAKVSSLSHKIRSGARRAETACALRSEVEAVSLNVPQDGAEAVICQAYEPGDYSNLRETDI
T4 sequence (P43140 whole entry): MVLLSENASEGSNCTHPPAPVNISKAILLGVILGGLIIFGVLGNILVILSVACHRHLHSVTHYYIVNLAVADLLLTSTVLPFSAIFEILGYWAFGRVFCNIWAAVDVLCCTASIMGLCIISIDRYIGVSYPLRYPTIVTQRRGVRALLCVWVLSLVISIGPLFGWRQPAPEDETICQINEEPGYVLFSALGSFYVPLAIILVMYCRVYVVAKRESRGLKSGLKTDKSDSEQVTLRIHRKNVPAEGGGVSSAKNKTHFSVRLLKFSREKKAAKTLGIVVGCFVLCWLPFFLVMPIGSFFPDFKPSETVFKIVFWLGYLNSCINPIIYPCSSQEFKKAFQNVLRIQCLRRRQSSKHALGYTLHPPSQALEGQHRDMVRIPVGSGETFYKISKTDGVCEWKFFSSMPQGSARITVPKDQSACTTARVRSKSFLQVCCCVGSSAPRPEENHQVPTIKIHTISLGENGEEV

[21] = test system: PC-3; assay: Inhibition of serotonin-induced MAPK phosphorylation in human PC3 cells at 15 uM after 48 hrs by Western blotting; type: cell-based
[22] = biological target: RAC-alpha serine/threonine-protein kinase (Homo sapiens) (UniProt P31749); assay: Inhibition of serotonin-induced AKT phosphorylation in human PC3 cells at 15 uM after 48 hrs by Western blotting; type: cell-based; details: PC-3
RAC-alpha serine/threonine-protein kinase (Homo sapiens), sequence (P31749 whole entry): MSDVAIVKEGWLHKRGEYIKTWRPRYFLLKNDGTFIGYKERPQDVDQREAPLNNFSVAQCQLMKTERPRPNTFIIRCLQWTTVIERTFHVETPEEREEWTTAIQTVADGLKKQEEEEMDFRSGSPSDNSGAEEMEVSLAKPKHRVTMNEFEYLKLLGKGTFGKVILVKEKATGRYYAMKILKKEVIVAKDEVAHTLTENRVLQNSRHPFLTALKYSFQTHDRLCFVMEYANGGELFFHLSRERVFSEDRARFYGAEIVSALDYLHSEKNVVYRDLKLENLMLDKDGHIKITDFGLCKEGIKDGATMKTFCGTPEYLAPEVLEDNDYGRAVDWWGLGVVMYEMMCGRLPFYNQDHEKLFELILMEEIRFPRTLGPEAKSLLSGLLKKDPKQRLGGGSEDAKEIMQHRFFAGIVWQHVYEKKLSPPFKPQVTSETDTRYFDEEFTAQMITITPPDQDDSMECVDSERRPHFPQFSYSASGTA

D(2) dopamine receptor, sequence (P61169 whole entry): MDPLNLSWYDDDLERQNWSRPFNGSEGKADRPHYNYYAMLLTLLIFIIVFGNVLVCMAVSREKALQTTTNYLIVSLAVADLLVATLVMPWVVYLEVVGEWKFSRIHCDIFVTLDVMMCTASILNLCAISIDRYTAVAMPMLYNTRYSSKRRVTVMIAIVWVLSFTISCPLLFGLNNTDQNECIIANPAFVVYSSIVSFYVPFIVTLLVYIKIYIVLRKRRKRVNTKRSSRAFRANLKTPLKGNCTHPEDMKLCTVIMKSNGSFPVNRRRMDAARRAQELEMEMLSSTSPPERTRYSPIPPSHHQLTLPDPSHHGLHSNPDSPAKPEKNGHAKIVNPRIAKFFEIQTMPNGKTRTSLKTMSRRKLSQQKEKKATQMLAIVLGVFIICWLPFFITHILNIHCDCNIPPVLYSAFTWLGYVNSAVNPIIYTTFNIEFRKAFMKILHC
5-hydroxytryptamine receptor 2A, sequence (P14842 whole entry): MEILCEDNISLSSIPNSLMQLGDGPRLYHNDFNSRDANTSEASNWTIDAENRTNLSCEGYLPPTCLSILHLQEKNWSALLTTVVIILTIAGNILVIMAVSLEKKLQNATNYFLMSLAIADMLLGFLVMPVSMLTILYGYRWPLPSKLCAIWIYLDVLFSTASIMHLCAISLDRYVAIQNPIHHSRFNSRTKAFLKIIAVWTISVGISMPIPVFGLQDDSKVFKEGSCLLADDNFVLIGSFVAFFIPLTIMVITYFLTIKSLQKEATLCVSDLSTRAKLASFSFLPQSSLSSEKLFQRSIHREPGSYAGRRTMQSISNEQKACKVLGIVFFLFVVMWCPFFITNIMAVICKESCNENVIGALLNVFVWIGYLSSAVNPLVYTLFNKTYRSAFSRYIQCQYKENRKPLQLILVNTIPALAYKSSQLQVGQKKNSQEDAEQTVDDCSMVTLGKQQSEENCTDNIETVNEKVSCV
D(1A) dopamine receptor, sequence (P18901 whole entry): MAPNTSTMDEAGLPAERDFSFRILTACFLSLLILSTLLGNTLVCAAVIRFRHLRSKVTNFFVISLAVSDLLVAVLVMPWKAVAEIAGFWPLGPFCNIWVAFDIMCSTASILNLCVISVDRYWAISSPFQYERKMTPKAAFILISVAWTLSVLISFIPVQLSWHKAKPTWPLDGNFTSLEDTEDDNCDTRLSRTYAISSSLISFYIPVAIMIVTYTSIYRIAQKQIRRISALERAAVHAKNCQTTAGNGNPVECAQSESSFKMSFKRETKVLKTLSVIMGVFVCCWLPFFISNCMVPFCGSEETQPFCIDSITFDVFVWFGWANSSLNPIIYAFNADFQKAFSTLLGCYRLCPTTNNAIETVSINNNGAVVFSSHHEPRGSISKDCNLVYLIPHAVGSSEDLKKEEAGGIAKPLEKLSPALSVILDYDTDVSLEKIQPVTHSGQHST

SMILES	growth inhibition (GI) [1]	Activity [2]	Activity [3]	Activity [4]	Activity [5]	Activity [6]	Activity [7]	Activity [8]	Activity [9]	Activity [10]	Activity [11]	Activity [12]	Activity [13]	also measured
Br.COc1ccccc1N1CCN(CCCCN2C(=O)c3ccccc3C2=O)CC1	inactive	1.77%	14.88%	45.73%	43.02%	3.05%	37.1%	35.59%	38.16%	49.53%	24.74%	2.42%	11.26%	–
N#CNC(=NCCCN1CCN(c2cccc3ccccc23)CC1)c1ccncc1	–	–	–	–	–	–	–	–	–	–	–	–	–	Ki [14]: > 10 µM; Ki [15]: > 10 µM; Ki [16]: 0.172 µM; Ki [17]: 1.6 µM
N#C/N=C(\NCCCN1CCN(c2cccc3ccccc23)CC1)c1ccncc1	inactive	–	–	–	–	–	–	–	–	–	–	–	–	Ki [18]: 0.878 µM; Ki [19]: Not Active; Ki [20]: > 10 µM
Br.CCCN(CCC)[C@H]1CCc2cccc(O)c2C1	inactive	2.2%	14.92%	50.34%	36.5%	2.65%	40.62%	37.31%	34.96%	47.78%	24.42%	0.73%	13.17%	inhibition [21]: inactive; inhibition [22]: Active
